This test addresses Plasma kallikrein (Homo sapiens, UniProt P03952). The test is described as follows: Subsequently, PPACK II (Calbiochem) was added as a stop solution to achieve a final concentration of 1 μM and fluorescence was measured using an Envision Reader (PerkinElmer) with the wavelength excitation setting of 355 nm and the wavelength emission setting of 460 nm.Evaluation of the Inhibition of Human KLKB1 in Dextransulfat Activated Human PPP.Platelet poor plasma (PPP) obtained from human wholeblood, anticoagulated with EDTA, was activated with 12.5 μg/mL dextransulfate for 7 min on ice. The activated PPP was incubated with various concentrations of the test compound in assay buffer. […] Measurements were performed in a kinetic interval every 2nd minute for 16 min using a Spectramax M5 (Molecular Devices) with the following settings of the wavelength excitation of 350 nm and wavelength emission of 450 nm.

Chain of Plasma kallikrein (P03952 20-390 limits assumed): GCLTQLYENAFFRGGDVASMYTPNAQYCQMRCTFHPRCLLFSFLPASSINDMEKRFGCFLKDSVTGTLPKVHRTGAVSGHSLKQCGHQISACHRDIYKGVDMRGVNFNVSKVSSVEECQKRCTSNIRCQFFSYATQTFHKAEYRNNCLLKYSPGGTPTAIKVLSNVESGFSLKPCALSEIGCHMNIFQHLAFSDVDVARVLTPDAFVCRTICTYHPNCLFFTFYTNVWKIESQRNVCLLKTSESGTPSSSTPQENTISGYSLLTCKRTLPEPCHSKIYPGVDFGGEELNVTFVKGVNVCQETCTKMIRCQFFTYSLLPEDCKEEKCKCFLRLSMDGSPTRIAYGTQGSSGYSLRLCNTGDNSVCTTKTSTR
Chain of Plasma kallikrein (P03952 391-638 limits assumed): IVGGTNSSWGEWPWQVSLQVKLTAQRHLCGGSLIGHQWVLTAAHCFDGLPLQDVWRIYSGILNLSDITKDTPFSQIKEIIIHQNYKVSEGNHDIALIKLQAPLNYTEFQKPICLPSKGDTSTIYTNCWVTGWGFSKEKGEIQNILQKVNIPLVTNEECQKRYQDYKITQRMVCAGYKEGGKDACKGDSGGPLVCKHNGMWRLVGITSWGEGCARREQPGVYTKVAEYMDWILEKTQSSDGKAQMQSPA

Consider `Cc1ccc2cc(Cn3cc(C(=O)N[C@H]4CCc5c4ccnc5N)nn3)ccc2n1`, for which half-maximal inhibition (IC50) was put at 1900 nM.

Regarding `Cc1ccc2cc(Cn3cc(C(=O)N[C@@H]4CCc5c4ccnc5N)nn3)ccc2n1`, the midpoint of inhibition, the IC50, lay at 36 nM.

These data come from ChEMBL document CHEMBL5727277, “Heteroarylcarboxamide derivatives as plasma kallikrein inhibitors” (2019).
